From PubChem BioAssay AID844 (SRMLSC, 2007)
Calls of active or inactive are those of the source. No rule for the calls is given here.

System: MRP1 cells, doxorubicin viability shift, 10 uM compound
Test: doxorubicin EC50 increase in MRP-1 cells, dose response, cell-based, doxorubicin EC50 shift (AID 844)
Conditions: for EC50: measured here: doxorubicin EC50 with compound

COc1ccc(S(=O)(=O)N(CC(=O)N2CCN(c3ccccc3OC)CC2)c2ccccc2)cc1
fold increase in Dox EC50: 0.46 (inactive) | EC50: 2.49 µM

c1ccc(-n2ncc3c(NCc4cccnc4)ncnc32)cc1
fold increase in Dox EC50: 0.57 (inactive) | EC50: 3.09 µM

CCOC(=O)c1sc(-c2ccc(F)cc2)cc1NC(=O)Nc1ccccc1OC
fold increase in Dox EC50: 0.83 (inactive) | EC50: 4.5 µM

Clc1ccc(CSc2ncn[nH]2)cc1
fold increase in Dox EC50: 1.03 (inactive) | EC50: 5.54 µM

O=C1CSC(=NC(=O)c2ccccc2)N1
fold increase in Dox EC50: 0.7 (inactive) | EC50: 3.79 µM

CCc1nnc(NC(=O)C2CCCN2S(=O)(=O)c2ccc(C)cc2)s1 (stereo not given)
fold increase in Dox EC50: 1.04 (inactive) | EC50: 5.6 µM

COc1ccccc1-c1nnc(SC2CCc3ccccc3NC2=O)s1 (stereo not given)
fold increase in Dox EC50: 0.55 (inactive) | EC50: 2.98 µM

O=[N+]([O-])c1ccc(O)c(N=Cc2sc3ccccc3c2O)c1
fold increase in Dox EC50: 0.08 (inactive) | EC50: 0.457 µM

CCC(Sc1nc2ccccc2o1)C(=O)Nc1nnc(C)s1 (stereo not given)
fold increase in Dox EC50: 1.34 (inactive) | EC50: 7.22 µM

Cc1ccc(CC2SC(=Nc3ccccc3)N(c3ccccc3)C2=O)cc1 (stereo not given)
fold increase in Dox EC50: 1.69 | EC50: 9.1 µM

O=C(CSCc1ccc(Cl)cc1)NCC1CCCO1 (stereo not given)
fold increase in Dox EC50: 1.1 (inactive) | EC50: 5.96 µM

N/C(Cc1cccs1)=N\OC(=O)COc1ccc(Br)cc1
fold increase in Dox EC50: 1.01 (inactive) | EC50: 5.44 µM

Cc1cc(C)n(CCC(=O)N/N=C/c2ccccc2O)n1
fold increase in Dox EC50: 0.28 (inactive) | EC50: 1.54 µM

Cc1ccc2[nH]c(=O)c(C(c3nnnn3C3CCCC3)N3CCCc4ccccc43)cc2c1 (stereo not given)
fold increase in Dox EC50: 1 (inactive) | EC50: 5.41 µM

Cc1nc2cc(-c3ccsc3-n3c(C)ccc3C)[nH]n2c(=O)c1Cl
fold increase in Dox EC50: 0.74 (inactive) | EC50: 4 µM

O=C(NC(=S)Nc1ccccn1)c1cc(-c2ccccc2)nc2ccccc12
fold increase in Dox EC50: 0.91 (inactive) | EC50: 4.93 µM

CCOC(=O)/C(=N\Nc1ccccc1Cl)N1CCN(Cc2ccccc2)CC1
fold increase in Dox EC50: 0.63 (inactive) | EC50: 3.43 µM

COc1ccc(-c2nc(-c3cccc(C)c3)no2)cc1OC
fold increase in Dox EC50: 0.69 (inactive) | EC50: 3.73 µM

COc1ccc(/C=C/C(=O)Nc2c(C)nn(C)c2C)cc1COc1ccc(Br)cc1
fold increase in Dox EC50: 0.84 (inactive) | EC50: 4.51 µM

COc1ccc(C(=O)Nc2ccccc2Cc2ccccc2)c(OC)c1
fold increase in Dox EC50: 0.66 (inactive) | EC50: 3.54 µM

CC(C)CNC(=O)c1c(N)n(/N=C/c2ccccn2)c2nc3ccccc3nc12
fold increase in Dox EC50: 0.94 (inactive) | EC50: 5.08 µM

O=C(Nc1cccnc1)C1CC(c2ccc(Cl)c(Cl)c2)=NO1 (stereo not given)
fold increase in Dox EC50: 1.32 (inactive) | EC50: 7.13 µM

Cc1cccc(CC2S/C(=N/c3ccccn3)NC2=O)c1 (stereo not given)
fold increase in Dox EC50: 1.15 (inactive) | EC50: 6.22 µM

CC(O)(CS(=O)(=O)Cc1ccccc1)C(=O)Nc1ccc(C(F)(F)F)cc1 (stereo not given)
fold increase in Dox EC50: 1.27 (inactive) | EC50: 6.84 µM

COc1cccc(/C=N\NC(=O)C2=NNC(=O)C2C)c1O (stereo not given)
fold increase in Dox EC50: 1.2 (inactive) | EC50: 6.47 µM

N=C(N)SCc1ccccn1
fold increase in Dox EC50: 0.54 (inactive) | EC50: 2.9 µM

Cc1ccc(NC(=O)CSc2nnc(-c3cccs3)n2Cc2ccco2)cc1
fold increase in Dox EC50: 0.78 (inactive) | EC50: 4.24 µM

O=C(Nc1ccc(N2CCCCC2)c(Cl)c1)c1ncn[nH]1
fold increase in Dox EC50: 0.78 (inactive) | EC50: 4.22 µM

CCCCN(C(=O)Cc1cccs1)c1nnc(-c2cccnc2)s1
fold increase in Dox EC50: 0.86 (inactive) | EC50: 4.65 µM

Cc1ccc(/C=C2\SC(=S)N(c3c(C)n(C)n(-c4ccccc4)c3=O)C2=O)cc1
fold increase in Dox EC50: 0.97 (inactive) | EC50: 5.23 µM

Cc1cc(C(=O)Nc2nnc(C(F)(F)F)s2)no1
fold increase in Dox EC50: 1.51 | EC50: 8.14 µM

COc1cccc(-c2csc(NC(=O)Oc3ccccc3)n2)c1
fold increase in Dox EC50: 1.52 | EC50: 8.23 µM

S=C(NCc1ccccn1)Nc1ccccc1Cl
fold increase in Dox EC50: 1.14 (inactive) | EC50: 6.15 µM

COc1ccc(NC(=O)C(=O)N/N=C/c2cc(C)n(-c3cccc(Cl)c3Cl)c2C)c(OC)c1
fold increase in Dox EC50: 1.43 (inactive) | EC50: 7.74 µM

CC1CCc2c(C(=O)OCC(=O)Nc3cccc(S(=O)(=O)N4CCCCCC4)c3)csc2C1 (stereo not given)
fold increase in Dox EC50: 1.05 (inactive) | EC50: 5.68 µM

OCCN=C1CCCc2c1[nH]c1ccc(Br)cc21
fold increase in Dox EC50: 0.84 (inactive) | EC50: 4.56 µM

O=C(c1ccc(COc2ccc(Br)cc2)o1)N1N=C(C(F)F)CC1(O)C(F)F (stereo not given)
fold increase in Dox EC50: 1.06 (inactive) | EC50: 5.71 µM

C=CCSC1=NC(=O)/C(=C/c2cccs2)S1
fold increase in Dox EC50: 1.13 (inactive) | EC50: 6.1 µM

Cc1cc(C(=O)N/N=C/c2cc(Br)ccc2OC(=O)c2ccccc2)n[nH]1
fold increase in Dox EC50: 0.15 (inactive) | EC50: 0.808 µM

Cc1ccc(N/N=C(\C#N)C(N)=S)c(C)c1
fold increase in Dox EC50: 0.6 (inactive) | EC50: 3.25 µM

C=C1c2cc(CC)ccc2NC(=O)N1c1ccc(C)cc1
fold increase in Dox EC50: 0.44 (inactive) | EC50: 2.37 µM

O=C(COC(=O)C1CC2C=CC1C2)Nc1ccc2c(c1)OC(F)(F)O2 (stereo not given)
fold increase in Dox EC50: 1.21 (inactive) | EC50: 6.54 µM

COc1ccc(NC(=O)c2oc3ccccc3c2NC(=O)c2ccc3c(c2)OCO3)cc1
fold increase in Dox EC50: 0.44 (inactive) | EC50: 2.4 µM

COCCOC(=O)c1c(C)oc2ccc(OCC=C(C)C)cc12
fold increase in Dox EC50: 0.5 (inactive) | EC50: 2.69 µM

CCc1nnc(NC(=O)[C@@H](NC(=O)c2cccc(S(=O)(=O)N(CC)CC)c2)C(C)C)s1
fold increase in Dox EC50: 0.4 (inactive) | EC50: 2.18 µM

Cc1cccc(C)c1-n1c(C)cc(/C=C2\C(=O)NN(c3ccccc3)C2=O)c1C
fold increase in Dox EC50: 0.63 (inactive) | EC50: 3.39 µM

CCOC(=O)N1CCN(C(=O)CSc2nnc(COc3ccc(Cl)cc3)o2)CC1
fold increase in Dox EC50: 1.03 (inactive) | EC50: 5.55 µM

COC(=O)c1cn(NC(=O)c2cccnc2)c(=O)c2ccccc12
fold increase in Dox EC50: 0.52 (inactive) | EC50: 2.79 µM

Cc1noc(/C=C/N(C)C)c1S(=O)(=O)N1CCCC(C(=O)NC2CCCCC2C)C1 (stereo not given)
fold increase in Dox EC50: 0.92 (inactive) | EC50: 4.98 µM

COC(=O)N/N=C/c1ccc(-c2cc(Cl)cc(Cl)c2)o1
fold increase in Dox EC50: 1.06 (inactive) | EC50: 5.71 µM

CCOC(=O)N1CCN(c2nc(-c3cccc(OC)c3)cc(C(F)(F)F)n2)CC1
fold increase in Dox EC50: 1.11 (inactive) | EC50: 6.02 µM

CCN(CC)C(=O)C(=O)c1c(-c2ccccc2)[nH]c2ccccc12
fold increase in Dox EC50: 2.22 | EC50: 12 µM

Cc1ccc(OCc2nnc(SC3CCc4ccccc4C3=O)n2C)cc1 (stereo not given)
fold increase in Dox EC50: 1.22 (inactive) | EC50: 6.56 µM

Cc1nn(Cc2c(F)c(F)c(F)c(F)c2F)c(C)c1NC(=O)c1ccc(COc2ccc(F)cc2)o1
fold increase in Dox EC50: 1 (inactive) | EC50: 5.42 µM

Cc1cc(Br)ccc1NC(=O)CNC(=O)CN1C(=O)NC2(CCCCCC2)C1=O
fold increase in Dox EC50: 1.34 (inactive) | EC50: 7.25 µM
